# Where a name gives a salt, the structure may show the parent alone. Read-outs that look alike come from different tables or passages of the source.
# What was measured:
# [1] = molecular target: T1, AChE (Homo sapiens, UniProt P22303); experiment: AChE inhibitory assay (Ellman-type, brain homogenate supernatant); assay type: biochemical; details: for AChE-IC50 (µM ± SD) / IC50: means of three replicates, N.A. means no activity; for IC50: read-out: AChE-IC50 (µM ± SD); for AChE Selectivity Index: IC50 of BuChE/ IC50 of AChE
# T1 construct: from tissue; host or cells: brain homogenate supernatant
# T1 sequence (P22303 32-614): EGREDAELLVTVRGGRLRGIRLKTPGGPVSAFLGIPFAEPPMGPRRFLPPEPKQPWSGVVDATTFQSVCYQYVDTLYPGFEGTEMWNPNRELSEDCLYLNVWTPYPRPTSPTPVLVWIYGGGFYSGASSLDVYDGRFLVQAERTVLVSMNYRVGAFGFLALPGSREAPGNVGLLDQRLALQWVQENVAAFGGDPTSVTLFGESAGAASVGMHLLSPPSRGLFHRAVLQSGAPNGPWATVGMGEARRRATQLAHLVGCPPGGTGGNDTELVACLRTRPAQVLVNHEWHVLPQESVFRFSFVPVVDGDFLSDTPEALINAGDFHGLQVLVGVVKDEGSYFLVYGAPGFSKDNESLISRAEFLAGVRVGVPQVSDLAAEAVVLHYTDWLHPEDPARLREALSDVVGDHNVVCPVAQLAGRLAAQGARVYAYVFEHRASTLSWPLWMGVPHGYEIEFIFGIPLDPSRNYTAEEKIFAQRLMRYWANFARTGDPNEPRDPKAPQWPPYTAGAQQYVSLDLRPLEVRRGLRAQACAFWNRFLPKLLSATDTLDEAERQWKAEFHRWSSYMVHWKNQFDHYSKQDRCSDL
# Protocol: The results, which are shown in Table 1, are graphically represented in Figs. 2 and 3. […]
# 3.1. AChE and BuChE inhibitory assays
# In ELISA plate (Bio Tec. USA), 150 μL of phosphate buffer was directly added in ELISA blank well and 130 μL of phosphate buffer was added in ELISA activity wells. To the blank and activity wells, 5 μL of substrate ACTI was added, then 20 μL brain homogenate supernatant was added in activity ELISA wells only. The plate was preincubated for 15 min at 37 °C before the addition of the second substrate (DTNB). DTNB (60 μL) was added in both the blank and activity wells. Absorbance was […]
# Values obtained were analyzed and blank reading was subtracted from sample readings. The AChE and BuChE inhibition activity of tested compound was expressed as IC 50. IC50 value is the inhibitory concentration at which 50% of AChE or BuChE is repressed. […]
# sample concentration using linear regression equations.
# [2] = molecular target: T2, MAO-B (Homo sapiens, UniProt P27338); experiment: MAO-B inhibitory assay; assay type: biochemical
# T2 construct: purchased Sigma M7441
# T2 sequence (P27338 1-520): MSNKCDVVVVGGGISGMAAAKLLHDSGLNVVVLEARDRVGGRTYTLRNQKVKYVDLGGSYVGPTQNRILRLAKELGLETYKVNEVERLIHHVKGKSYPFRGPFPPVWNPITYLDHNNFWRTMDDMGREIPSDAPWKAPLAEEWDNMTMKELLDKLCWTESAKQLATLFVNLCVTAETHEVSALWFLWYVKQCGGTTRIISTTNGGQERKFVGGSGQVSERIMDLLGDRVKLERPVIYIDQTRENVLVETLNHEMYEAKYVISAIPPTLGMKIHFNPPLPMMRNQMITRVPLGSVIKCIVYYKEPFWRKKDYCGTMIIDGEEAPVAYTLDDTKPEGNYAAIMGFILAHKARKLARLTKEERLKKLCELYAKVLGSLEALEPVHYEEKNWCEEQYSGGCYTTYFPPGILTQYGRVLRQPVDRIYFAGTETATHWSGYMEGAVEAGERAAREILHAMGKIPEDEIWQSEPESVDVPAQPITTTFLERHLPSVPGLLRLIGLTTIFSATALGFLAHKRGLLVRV
# [3] = tested on: human red blood cells (HRBCs); experiment: Anti-hemolytic effect (hypotonic solution-induced human erythrocyte hemolysis); assay type: cell-based; details: read-out: Hemolysis-IC50 (µM ± SD)
# Protocol: The inhibition of human red blood cells (HRBCs) membrane lysis under […] conditions was taken as a measure of the mechanism of anti-hemolytic activity of the synthesized 1,2,4-oxadiazole-based derivatives. […]
# The test carried out triplicate. […]
# It was calculated by interpolation from the graph of inhibition percentage against sample concentration using linear regression equations.
# The Inhibition percentage was calculated. IC50 value is the […]
# centrifugation each time for 10 min at 3000 ×g. […]
# solution-induced human erythrocyte hemolysis. […]
# consisted of 0.5 mL of RBCs mixed with hypotonic-buffered saline solution alone. The mixtures were incubated for 10 min at room temperature and centrifuged for 10 min at 3000 ×g and the absorbance of the supernatant was measured at 540 nm using optima spectrophotometer. The test carried out triplicate. Inhibition of hemolysis percentages were calculated. Inhibition of hemolysis activity was expressed as IC50.
# [4] = DPPH radical scavenging activity; details: means of three replicates; N.A. means no activity; read-out: DPPH-IC50 (µM ± SD)
# [5] = molecular target: T3, MAO-A (Homo sapiens, UniProt P21397); experiment: biochemical
# T3 sequence (P21397 1-527): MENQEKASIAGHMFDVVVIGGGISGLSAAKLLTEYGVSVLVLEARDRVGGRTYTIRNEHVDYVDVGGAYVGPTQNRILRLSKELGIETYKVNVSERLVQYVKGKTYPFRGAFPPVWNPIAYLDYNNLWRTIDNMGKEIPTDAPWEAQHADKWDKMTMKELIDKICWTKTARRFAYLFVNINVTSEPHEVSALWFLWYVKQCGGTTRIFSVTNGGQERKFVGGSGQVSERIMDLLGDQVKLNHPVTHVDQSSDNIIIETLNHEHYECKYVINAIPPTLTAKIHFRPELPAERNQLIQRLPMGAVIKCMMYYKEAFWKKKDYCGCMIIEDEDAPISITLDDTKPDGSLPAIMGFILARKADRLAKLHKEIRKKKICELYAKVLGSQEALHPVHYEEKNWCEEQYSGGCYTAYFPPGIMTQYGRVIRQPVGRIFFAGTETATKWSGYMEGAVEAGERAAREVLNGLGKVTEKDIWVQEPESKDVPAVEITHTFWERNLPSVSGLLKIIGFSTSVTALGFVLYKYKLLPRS
# Protocol: The MAO-B and MAO-A inhibitory potentials of all the synthesized 1,2,4-oxadiazole-based derivatives were evaluated. Biperiden and methylene blue (methylthioninium chloride) were used as the reference standards.
# In test tube, 150 µL of 20 nM of MAO-A or MAO-B (M7441, Sigma), 150 µL of tested compound serial dilutions (0, 0.1,
# 0.25, 0.5,1 and 2 mg/mL), 133 µL potassium phosphate buffer and 667 µL of or benzylamine (5µM) were mixed well.
# absorbance was measured at 250 nm against air after 30 s and 90 s. The Inhibition percentage was calculated.
# inhibitory concentration at which 50% of MAO -A or MAO-B is repressed.
# [6] = molecular target: T1, AChE; set-up: method as in PMID 18550375, PMID 33017743, PMID 36223681, PMID 34752955, PMID 26077890; details: Fig. 1; ref [50]–[55]; cited from earlier work
# [7] = tested on: GSK-3β; set-up: method as in PMID 18550375, PMID 33017743, PMID 36223681, PMID 34752955, PMID 26077890; details: Fig. 1; ref [50]–[55]; cited from earlier work
# [8] = set-up: method as in PMID 18550375, PMID 33017743, PMID 36223681, PMID 34752955, PMID 26077890; details: Fig. 1; ref [50]–[55]; read-out: Anti-neuroinflammatory potency (IC50); cited from earlier work
# [9] = inhibition of induced HRBC membrane lysis, means of three replicates
Compound,IC50 [2],"IC50 [3, 9]",IC50 [4],IC50 [5],IC50 [1],AChE Selectivity Index [1],other results
NNC(=O)COc1ccccc1-c1nc(-c2ccccc2)no1 [Compound 1a],359 ± 23.4 µM,1620 ± 57.8 µM,1220 ± 51.3 µM,47.2 ± 8.1 µM,–,–,AChE-IC50 (µM ± SD) [1]: nonexistent efficacy
COc1ccc(-c2noc(Cn3cc(Cn4c5ccccc5c(=O)c5ccccc54)nn3)n2)cc1 [V],–,–,–,–,–,–,IC50 [6]: 11.5 µM
NNC(=O)COc1ccccc1-c1nc(Cc2ccccc2)no1 [Compound 1b],535 ± 41.5 µM,1190 ± 78.3 µM,1280 ± 42.8 µM,82.5 ± 8.7 µM,0.031 ± 0.0024 µM,–,–
"O=C(COc1ccccc1-c1nc(-c2ccc(C(F)(F)F)cc2)no1)N/N=C\c1cnn(-c2ccccc2)n1 [Compound 3c, (E/Z)-N’-((2-Phenyl-2 H-1,2,3-triazol-4-yl)methylene)-2-(2-(3-(4-(trifluoromethyl)phenyl)-1,2,4-oxadiazol-5-yl)phenoxy)acetohydrazide]",–,661 ± 23.8 µM,582 ± 42.9 µM,115 ± 19.5 µM,–,–,AChE-IC50 (µM ± SD) [1]: nonexistent efficacy
"O=c1c(O)c(-c2ccc(O)c(O)c2)oc2cc(O)cc(O)c12 [Quercetin, reference compound]",–,–,491 ± 14.8 µM,–,–,–,–
NNC(=O)COc1ccccc1-c1nc(-c2ccc(C(F)(F)F)cc2)no1 [Compound 1c],397 ± 19.6 µM,657 ± 33.1 µM,735 ± 12.8 µM,147 ± 16.9 µM,–,–,AChE-IC50 (µM ± SD) [1]: nonexistent efficacy
Cc1cc(-c2noc(-c3ccc(OCC4CCN(Cc5cccc(F)c5)CC4)cc3)n2)ccn1 [III],–,–,–,–,–,–,IC50 [6]: 0.07 µM
"O=C(COc1ccccc1-c1nc(-c2ccc(C(F)(F)F)cc2)no1)N/N=C\c1ccccc1[N+](=O)[O-] [Compound 2c, (E/Z)-N’-(2-Nitrobenzylidene)-2-(2-(3-(4-(trifluoromethyl)phenyl)-1,2,4-oxadiazol-5-yl)phenoxy) acetohydrazide]",266 ± 13.4 µM,4340 ± 126 µM,464 ± 31.5 µM,–,0.0127 ± 0.00102 µM,"3,100",–
CC(C)(C)c1ccc(S(=O)(=O)Nc2ccc(-c3nc(-c4ccnc(Nc5ccccc5Cl)c4)no3)cc2)cc1 [II],–,–,–,–,–,–,IC50 [7]: 0.19 µM; IC50 [8]: 6.94 µM
"O=C(O)Cc1ccccc1Nc1c(Cl)cccc1Cl [Diclofenac, reference compound]",–,–,–,–,–,–,IC50 [3]: 1120 ± 12.6 µM
"OC(CCN1CCCCC1)(c1ccccc1)C1CC2C=CC1C2 (centres unmarked) [Biperiden HCl, reference compound]",–,–,–,–,–,–,"IC50 ([2]; means of three replicates, N.A. means no activity, read-out: MAO-B-IC50 (µM ± SD)): 238 ± 16.3 µM"
"O=C(COc1ccccc1-c1nc(-c2ccccc2)no1)N/N=C\c1ccccc1[N+](=O)[O-] [Compound 2a, (E/Z)-N’-(2-Nitrobenzylidene)-2-(2-(3-phenyl-1,2,4-oxadiazol-5-yl)phenoxy)acetohydrazide]",–,1790 ± 63.1 µM,1310 ± 31.5 µM,–,0.0339 ± 0.0029 µM,–,–
"O=C(COc1ccccc1-c1nc(Cc2ccccc2)no1)NNC(=O)c1ccc2ccccc2n1 [Compound 5b, N’-(2-(2-(3-Benzyl-1,2,4-oxadiazol-5-yl)phenoxy)acetyl)quinoline-2-carbohydrazide]",–,3560 ± 125 µM,–,–,0.0337 ± 0.00089 µM,627,–
"O=C(COc1ccccc1-c1nc(Cc2ccccc2)no1)N/N=C\c1ccccc1[N+](=O)[O-] [Compound 2b, (E/Z)-2-(2-(3-Benzyl-1,2,4-oxadiazol-5-yl)phenoxy)-N’-(2-nitrobenzylidene)acetohydrazide]",346 ± 14.3 µM,4100 ± 114 µM,991 ± 11.4 µM,204 ± 17.9 µM,0.00098 ± 1e-06 µM,"36,571",–
"O=C(COc1ccccc1-c1nc(-c2ccc(C(F)(F)F)cc2)no1)NN1C(=O)c2ccccc2C1=O [Compound 4c, N-(1,3-Dioxoisoindolin-2-yl)-2-(2-(3-(4-(trifluoromethyl)phenyl)-1,2,4-oxadiazol-5-yl)phenoxy)acetamide]",117 ± 9.8 µM,1040 ± 88.9 µM,–,144 ± 22.4 µM,0.0377 ± 0.0027 µM,673,–
"O=C(COc1ccccc1-c1nc(-c2ccccc2)no1)N/N=C\c1cnn(-c2ccccc2)n1 [Compound 3a, (E/Z)-2-(2-(3-Phenyl-1,2,4-oxadiazol-5-yl)phenoxy)-N’-((2-phenyl-2 H-1,2,3-triazol-4-yl)methylene) acetohydrazide]",–,622 ± 23.4 µM,–,85.2 ± 5.9 µM,–,–,AChE-IC50 (µM ± SD) [1]: nonexistent efficacy
"O=C(COc1ccccc1-c1nc(-c2ccccc2)no1)NN1C(=O)c2ccccc2C1=O [Compound 4a, N-(1,3-Dioxoisoindolin-2-yl)-2-(2-(3-phenyl-1,2,4-oxadiazol-5-yl)phenoxy)acetamide]",394 ± 16.3 µM,522 ± 15.9 µM,1660 ± 62.3 µM,–,0.0328 ± 0.0011 µM,"1,010",–
"O=C(COc1ccccc1-c1nc(-c2ccccc2)no1)NNC(=O)c1ccc2ccccc2n1 [Compound 5a, N’-(2-(2-(3-Phenyl-1,2,4-oxadiazol-5-yl)phenoxy)acetyl)quinoline-2-carbohydrazide]",274 ± 21.1 µM,2020 ± 111 µM,885 ± 22.9 µM,–,0.0475 ± 0.0028 µM,–,–
"O=C(COc1ccccc1-c1nc(Cc2ccccc2)no1)N/N=C\c1cnn(-c2ccccc2)n1 [Compound 3b, (E/Z)-2-(2-(3-Benzyl-1,2,4-oxadiazol-5-yl)phenoxy)-N’-((2-phenyl-2 H-1,2,3-triazol-4-yl)methylene) acetohydrazide]",140 ± 8.7 µM,457 ± 19.6 µM,537 ± 19.3 µM,–,0.0233 ± 0.00069 µM,735,–
"O=C(COc1ccccc1-c1nc(Cc2ccccc2)no1)NN1C(=O)c2ccccc2C1=O [Compound 4b, 2-(2-(3-Benzyl-1,2,4-oxadiazol-5-yl)phenoxy)-N-(1,3-dioxoisoindolin-2-yl)acetamide]",713 ± 22.3 µM,1790 ± 89.3 µM,2661 ± 26.3 µM,130 ± 16.9 µM,0.0293 ± 0.0013 µM,–,–
"O=C(COc1ccccc1-c1nc(-c2ccc(C(F)(F)F)cc2)no1)NNC(=O)c1ccc2ccccc2n1 [Compound 5c, N’-(2-(2-(3-(4-(Trifluoromethyl)phenyl)-1,2,4-oxadiazol-5-yl)phenoxy)acetyl)quinoline-2-carbohydrazide]",–,521 ± 11.9 µM,1140 ± 68.9 µM,–,0.0792 ± 0.0061 µM,894,–

# Source: PMC11246588, “New 1,2,4-oxadiazole derivatives as potential multifunctional agents for the treatment of Alzheimer’s disease: design, synthesis, and biological evaluation” (BMC Chemistry, 2024)
